Read-outs that look alike come from different tables or passages of the source.
Legend:
[1] = molecular target: T1, PARP1 (Homo sapiens, UniProt P09874); test: PARP inhibition assay (TREVIGEN kit, NAD fluorescence); assay type: biochemical; conditions: final PARP concentration 40 nM; inhibition curves FIG. 2A-2D
T1 construct: purchased TREVIGEN 4690-096-K
Procedure: The PARP inhibition assay was performed using a commercially available PARP inhibition assay kit (TREVIGEN, 4690-096-K).
A 1× buffer was prepared by diluting 10× buffer with dH2O.
The nicotinamide adenine dinucleotide (NAD) standards were prepared by diluting the NAD stock solution with the 1× buffer as provided in Table 2 below.
PARP1 inhibitors were prepared in 1× buffer at 50× final concentration. 1 μl of PARP inhibitors were added to the 96 well plate.
PARPminus (×20) and PARPplus (×40) solutions were prepared as provided below in Table 3.
The cycling mix(60×) was prepared as provided below in Table 4.
In the black 96 well plate provided with the kit, 25 μl of 1× buffer was added to wells A5 and A6. To wells B5 to G6, 25 μl of 2×NAD standards were added. To wells H1, H2, A7 to G12, 25 μl NAD2 μM were added. To wells A5 to H6, 1 μl DMSO were added.
The following stock solutions of olaparib and C3 were separately prepared: 500 nM, 2.5 μM, 5 μM, 25 μM, 50 μM, 0.5 mM, and 1 mM. […]
The 96 well plate was read with a fluorescent plate reader (544 nm excitation/590 nm emission filters). […]
The standards indicate that higher concentrations of NAD correspond to higher fluorescence. Because PARP1 consumes NAD, PARP1 inhibition was determined by fluorescence intensity.
Inhibition curves were prepared based on the fluorescence data. […]

[2] = tested on: MCF7 cells; test: MCF7 cell proliferation assay; assay type: cell-based, human; conditions: days 1-4; FIG. 6, 7
Procedure: A cell proliferation assay was performed with MCF7 cells, which is a human breast cancer adenocarcima cell line which expresses PARP1, to compare the inhibitor effect of C2 (Abemaciclib), C2 in combination with letrozole (1 μM), C3, and C3 in combination with letrozole (1 μM). Cell proliferation results at increasing concentrations of C2 and C3 were measured at day 1 (FIG. 6A), day 2 (FIG. 6B), day 3 (FIG. 6C), and day 4 (FIG. 6D).

[3] = tested on: MB231 cells; test: MB231 cell proliferation assay; assay type: cell-based, human; conditions: days 1-4; FIG. 8, 9
Procedure: A cell proliferation assay was performed with MB231 cells, which is a human breast cancer adenocarcinoma cell line expressing a mutant CDKN2A, treated with C3 or olaparib. Cell proliferation results at increasing concentrations of C3 and olaparib were measured at day 1 (FIG. 8A), day 2 (FIG. 8B), day 3 (FIG. 8C), and day 4 (FIG. 8D).

[4] = tested on: HCC1395 cells; test: BRAC1 mutant triple negative breast cancer cell growth inhibition assay (Cell Titer Glo), HCC1395; assay type: cell-based
Procedure: (§1) HCC1937 cells and HCC1395 cells are both […], triple negative (ER, PR, HER2) breast cancer cell lines. The cells were maintained in RPMI1640 medium (Gibco A10491-01) supplemented with 10% FBS, and 1× Penicillin Streptomycin. The HCC1937 cells (ATCC® CRL-2336™) and HCC1395 cells (ATCC® CRL-2324™), respectively, were plated in 96 dark well plates at 0.4×10^4 cells/well.
(§2) Cell medium was replaced each day for 4 days.
(§3) To determine cell viability, the relative cell number was determined by the Cell Titer Glo reagent (Promega) according to the protocol. At each day of the assay, the 96 well plate and reagents were equilibrated at RT for 30 min. 100 μl of Cell Titer Glo reagent was added to each well. The contents of each well were mixed using a pipetter to induce cell lysis. The plate was allowed to incubate at RT for 30 min to stabilize the luminescent signal, and the luminescence was determined by a luminometer (Perkin Elmer EnSpire).

[5] = tested on: HCC1937 cells; test: BRAC1 mutant triple negative breast cancer cell growth inhibition assay (Cell Titer Glo), HCC1937; assay type: cell-based
Procedure: as §1, §2, §3

[6] = tested on: more than 480 kinase assays (403 non-mutant kinases); test: Kinase selectivity, DiscoverX KINOMEscan competition binding
Procedure: A kinase selectivity assay was performed with C3 using DiscoverX KINOMEscan™ (www.discoverx.com/, which is herein incorporated by reference in its entirety for all purposes). The KINOMEscan platform employs active site-directed competition binding assay to quantitatively measure interactions between test compounds (e.g., C3) and more than 480 kinase assays including clinically relevant mutants, lipid, atypical, and pathogen kinases, plus a growing panel of activation-state specific assays.
The data was interpreted using three selectivity score types (e.g., S(35); S(10); and S(1)) in order to provide a broad kinase selectivity picture (e.g., a selectivity score) of C3. The selectivity score was calculated using % Ctrl as a potency threshold (below) and provides a quantitative method of describing compound selectivity to facilitate comparison of different compounds. The three selectivity score types used to interpret the data are summarized below: S=Number of hits/Number of assays S(35)=(number of non-mutant kinases with % Ctrl<35)/(number of non-mutant kinases tested) S(10)=(number of non-mutant kinases with % Ctrl<10)/(number of non-mutant kinases tested) S(1)=(number of non-mutant kinases with % Ctrl<1)/(number of non-mutant kinases tested)

[7] = Pharmacokinetics in female BALB/c mice; assay type: in vivo; conditions: plasma; for MRT last: read-out: MRT(0-t)
Procedure: Pharmacokinetic parameters of the of C3 were measured after a single intraperitoneal injection (IP) of 10 mg/kg, or oral administration (PO) of 50 mg/kg in female BALB/c mice. Pharmacokinetic parameters measured include: elimination half-life (t1/2), time to reach maximum blood plasma concentration (Tmax); maximum blood plasma concentration (Cmax); area under the blood plasma concentration-time curve from time zero to the last detectable plasma concentration (AUC(0-t)); area under the blood plasma concentration-time curve from time zero to infinity (AUC(0-∞)); the mean residence time of the drug in the body from time zero to the last detectable plasma concentration (MRT(0-t)); apparent volume of distribution during terminal phase (Vz); and apparent total body clearance of the drug from plasma (CL).

[8] = tested on: MCF/E2 xenograft tumor; test: MCF/E2 xenograft tumor mouse model, tumor volume; assay type: in vivo; conditions: 50 mg/kg P.O. QD for 2 weeks; FIG. 14A
Procedure: (§4) A MCF/E2 xenograft tumor mouse model was used to evaluate the efficacy of C3 in the treatment of breast cancer. 50 mg/kg of C3 was administered, P.O., once daily (QD) for 2 weeks. Data was compared to a vehicle control.

[9] = MCF/E2 xenograft tumor mouse model, body weight; assay type: in vivo; conditions: 50 mg/kg P.O. QD for 2 weeks; FIG. 14B
Procedure: as §4

[10] = tested on: MCF7 cells; test: MCF7 breast cancer cell viability assay; assay type: cell-based, human; conditions: FIG. 15A
Procedure: (§5) MCF7 is a breast cancer cell line isolated from a person. MDA-MB-231 is a cell line is an epithelial, human breast cancer cell line that was established from a pleural effusion of a person with a metastatic mammary adenocarcinomal. Cell assays were performed using increasing concentrations of C3 and cell viability was measured. Olaparib and palbocicilib were also used in the cell assays to compare the efficacy of C3 in decreasing cell viability of these breast cancer lines.

[11] = tested on: MDA-MB-231 cells; test: MDA-MB-231 breast cancer cell viability assay; assay type: cell-based, human; conditions: increasing concentrations; FIG. 15B
Procedure: as §5

[12] = % Ctrl<1, 403 non-mutant kinases, screening concentration 1000 nM
[13] = % Ctrl<10, 403 non-mutant kinases, screening concentration 1000 nM
[14] = % Ctrl<35, 403 non-mutant kinases, screening concentration 1000 nM

T1 sequence (P09874 whole entry): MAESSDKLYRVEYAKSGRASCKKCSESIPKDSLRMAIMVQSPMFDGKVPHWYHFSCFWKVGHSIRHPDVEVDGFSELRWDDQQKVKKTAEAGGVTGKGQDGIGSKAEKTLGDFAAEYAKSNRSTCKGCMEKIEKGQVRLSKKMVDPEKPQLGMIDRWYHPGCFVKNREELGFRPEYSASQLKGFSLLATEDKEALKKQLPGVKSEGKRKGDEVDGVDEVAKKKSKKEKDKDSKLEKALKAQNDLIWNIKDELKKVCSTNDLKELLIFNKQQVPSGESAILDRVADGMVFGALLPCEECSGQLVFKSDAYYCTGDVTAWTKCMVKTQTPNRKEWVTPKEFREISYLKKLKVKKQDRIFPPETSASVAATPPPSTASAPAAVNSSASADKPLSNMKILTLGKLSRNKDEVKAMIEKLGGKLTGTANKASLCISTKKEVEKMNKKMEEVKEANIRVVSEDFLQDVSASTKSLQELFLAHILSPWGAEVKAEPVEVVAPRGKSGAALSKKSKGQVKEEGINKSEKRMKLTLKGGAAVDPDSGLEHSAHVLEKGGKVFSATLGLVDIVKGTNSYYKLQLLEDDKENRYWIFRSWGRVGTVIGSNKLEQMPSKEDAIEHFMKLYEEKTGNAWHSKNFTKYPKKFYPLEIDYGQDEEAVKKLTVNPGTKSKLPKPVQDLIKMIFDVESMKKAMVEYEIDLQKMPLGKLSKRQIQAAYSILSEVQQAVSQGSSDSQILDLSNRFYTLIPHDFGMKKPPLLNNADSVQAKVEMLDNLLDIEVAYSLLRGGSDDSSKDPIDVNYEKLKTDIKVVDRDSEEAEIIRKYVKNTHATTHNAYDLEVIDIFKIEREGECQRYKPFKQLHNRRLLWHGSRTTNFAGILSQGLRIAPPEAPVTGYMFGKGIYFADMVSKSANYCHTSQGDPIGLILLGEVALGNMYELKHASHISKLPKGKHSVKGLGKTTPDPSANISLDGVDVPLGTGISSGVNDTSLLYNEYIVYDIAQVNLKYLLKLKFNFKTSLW

Cc1nc2c(F)cc(-c3nc(Nc4ccc(N5CCN(C(=O)c6cc(Cc7n[nH]c(=O)c8ccccc78)ccc6F)CC5)cn4)ncc3F)cc2n1C(C)C [Compound C3]
PARP1 inhibition (comparison in words) [1]: superior to C2 (Abemaciclib) and similar to olaparib
inhibition of MCF7 cell proliferation [2]: inhibitor of cell proliferation
inhibition of MB231 cell proliferation [3]: stronger inhibitor of cell proliferation of MB231 human breast cancer adenocarcinoma cells than olaparib
viable HCC1395 cells ([4]; 10 μM, day 4, FIG. 10D): almost no HCC1395 cells were viable
viable HCC1937 cells ([5]; 10 μM, day 4, FIG. 11D): almost no HCC1937 cells were viable
Number of Hits, S(1) [6, 12]: 11
Selectivity Score S(1) [6, 12]: 0.027
Number of Hits, S(10) [6, 13]: 50
Selectivity Score S(10) [6, 13]: 0.124
Number of Hits, S(35) [6, 14]: 86
Selectivity Score S(35) [6, 14]: 0.213
kinase selectivity (in words) ([6]; KINOMEscan, 1000 nM): relatively selective kinase, with similar kinase selectivity as Abemaciclib
AUC(0-t) ([7]; mouse, PO 50 mg/kg): 1700 ng·h/mL
Cmax ([7]; mouse, PO 50 mg/kg): 292 ng/mL
Tmax ([7]; mouse, PO 50 mg/kg): 4 h
MRT last ([7]; mouse, PO 50 mg/kg): 3.62 h
AUC(0-inf) ([7]; mouse, single IP 10 mg/kg): 2670 ng·h/mL
AUC(0-t) ([7]; mouse, single IP 10 mg/kg): 2520 ng·h/mL
Cmax ([7]; mouse, single IP 10 mg/kg): 284 ng/mL
Tmax ([7]; mouse, single IP 10 mg/kg): 0.25 h
half-life ([7]; mouse, single IP 10 mg/kg): 5.7 h
MRT last ([7]; mouse, single IP 10 mg/kg): 6.3 h
CL ([7]; single IP 10 mg/kg): 62.3432 mL/min/kg
Vz ([7]; single IP 10 mg/kg): 30.75832 L/kg
change in tumor volume versus vehicle control [8]: able to limit tumor growth compared to the vehicle control
change in body weight versus vehicle control [9]: does not causes changes in body weight
reduction of MCF7 cell viability (comparison in words) ([10]; increasing concentrations): reduced cell viability of MCF7 cells at lower concentrations compared to both olaparib and palbocicilib
reduction of MDA-MB-231 cell viability (comparison in words) [11]: more effective in reducing cell viability of MDA-NIB-231 cell than olaparib and palbocicilib

O=C(c1cc(Cc2n[nH]c(=O)c3ccccc23)ccc1F)N1CCN(C(=O)C2CC2)CC1 [olaparib, reference compound]
viability at 10 µM ([4]; Homo sapiens, HCC1395, 96 h, day 4, FIG. 10D, read-out: viable HCC1395 cells): ~60%
viability at 10 µM ([5]; Homo sapiens, HCC1937, 96 h, day 4, FIG. 11D, read-out: viable HCC1937 cells): > 80%
concentration at which MCF7 cell viability was reduced to 0 [10]: did not reduce cell viability to 0% at the concentrations tested

From patent publication US10550103B2, “Dual inhibitors of PARP1 and CDK” (Accutar Biotechnology, priority 2017, dated 2020)
